Test results published in ChEMBL document CHEMBL5608241, “Discovery of Novel Non-nucleoside DOT1LR231Q Inhibitors with Improved Pharmacokinetic Properties and Anti-lung Cancer Efficacy” (J Med Chem, 2024).

Columns and labels:
[1] = tested on: NCI-H460; test: Antiproliferative activity against human NCI-H460 cells harboring DOT1L R231Q mutant (unknown origin) (1 to 416 residues) assessed as inhibition of cell proliferation incubated for 72 hrs by CCK-8 assay; format: functional, cell-based; conditions: NCI-H460, 72 h
[2] = tested on: NCI-H460; test: Antiproliferative activity against human NCI-H460 cells harboring wildtype DOT1L (unknown origin) (1 to 416 residues) assessed as inhibition of cell proliferation incubated for 72 hrs by CCK-8 assay; format: functional, cell-based; conditions: NCI-H460, 72 h
[3] = tested on: NCI-H460; test: Antiproliferative activity against human NCI-H460 cells harboring DOT1L R231Q mutant assessed as inhibition of cell proliferation incubated for 72 hrs by CCK-8 assay; format: functional, cell-based; conditions: NCI-H460, 72 h
[4] = tested on: NCI-H460; test: Antitumor activity against human NCI-H460 cells harboring DOT1L R231Q OE mutant xenografted in male BALB/c-nu mouse model assessed as tumor growth inhibition at 20 mg/kg, ip administered five times a week for 3 weeks relative to control; format: functional; conditions: NCI-H460, 504 h, read-out: TGI

CC(C)N(CCCNC(=O)Nc1ccc(C(C)(C)C)cc1)CC1(O)CCN(c2nc(Cl)nc3sccc23)C1 (stereo unspecified)
IC50 [1]: 16 µM
IC50 [2]: 7.56 µM

CC(C)N(CCCNC(=O)Nc1ccc(C(C)(C)C)cc1)CC1(O)CCN(c2nc(N)nc3[nH]cnc23)C1 (stereo unspecified)
IC50 [1]: 35.7 µM
IC50 [2]: 25.6 µM

CC(C)(C)c1ccc(NC(=O)NCCCN(CCC(=O)N2CCOCC2)CC2(O)CCN(c3nc(Cl)nc4[nH]cnc34)C2)cc1 (stereo unspecified)
IC50 [1]: 38.4 µM
IC50 [2]: 53.9 µM

CC(C)N(CCCNC(=O)Nc1ccc(C(C)(C)C)cc1)CC1(O)CCN(c2nc(Cl)nc3[nH]cnc23)C1 (stereo unspecified)
IC50 [1]: 13.8 µM
IC50 [2]: 5.33 µM

CN(CCCNC(=O)Nc1ccc(C(C)(C)C)cc1)CC1(O)CCN(c2nc(N)nc3[nH]cnc23)C1 (stereo unspecified)
IC50 [1]: 44.9 µM
IC50 [2]: 23.8 µM

CN(CCCNC(=O)Nc1ccc(C(C)(C)C)cc1)CC1CCCN(c2cc(C#N)ccn2)C1 (stereo unspecified)
IC50 [1]: 91.2 µM
IC50 [2]: > 100 µM

CN(CCCNC(=O)Nc1ccc(C(C)(C)C)cc1)CC1(O)CCN(c2ncnc3[nH]cc(Br)c23)C1 (stereo unspecified)
IC50 [1]: 40.6 µM
IC50 [2]: 38.7 µM

CC(C)N(CCCNC(=O)Nc1ccc(C(C)(C)C)cc1)CC1CCCN(c2cc(C#N)ccn2)C1 (stereo unspecified)
IC50 [1]: > 100 µM
IC50 [2]: > 100 µM

CC(C)N(CCCNC(=O)Nc1ccc(C(C)(C)C)cc1)CC1CCCN(c2ncnc3[nH]cnc23)C1 (stereo unspecified)
IC50 [1]: 66.5 µM
IC50 [2]: 64.7 µM

CC(C)N(CCCNC(=O)Nc1ccc(C(C)(C)C)cc1)CC1(O)CCN(c2ncnc3[nH]cc(Br)c23)C1 (stereo unspecified)
IC50 [1]: 45.3 µM
IC50 [2]: 35.2 µM

CN(CCCNC(=O)Nc1ccc(C(C)(C)C)cc1)CC1(O)CCN(c2nc(Cl)nc3[nH]cnc23)C1 (stereo unspecified)
IC50 [1]: 17.6 µM
IC50 [2]: 6.46 µM

CC(C)(C)c1ccc(NC(=O)NCCCN(CCCN2CCOCC2)CC2(O)CCN(c3ncnc4[nH]cnc34)C2)cc1 (stereo unspecified)
IC50 [1]: 73.1 µM
IC50 [2]: > 100 µM

CC(C)(C)c1ccc(NC(=O)NCCCN(CCC(=O)N2CCSCC2)CC2(O)CCN(c3ncnc4[nH]cnc34)C2)cc1 (stereo unspecified)
IC50 [1]: 89.6 µM
IC50 [2]: > 100 µM

CN(CCCNC(=O)Nc1ccc(C(C)(C)C)cc1)CC1CCCN(c2ncnc3[nH]cnc23)C1 (stereo unspecified)
IC50 [1]: 64.3 µM
IC50 [2]: 68.6 µM

CC(C)(C)C(=O)Nc1ccc2[nH]c(CN3CCC(N(CCCN4CCOCC4)CC4CCCN(c5nc(Cl)nc6[nH]ncc56)C4)CC3)nc2c1 (stereo unspecified)
IC50 [1]: 52 µM
IC50 [2]: > 100 µM

CC(C)(C)c1ccc(NC(=O)NCCCN(CCO)CC2(O)CCN(c3nc(N)nc4[nH]cnc34)C2)cc1 (stereo unspecified)
IC50 [1]: 52.6 µM
IC50 [2]: 31.2 µM

CC(C)N(CCCNC(=O)Nc1ccc(C(C)(C)C)cc1)CC1(O)CCN(c2ncnc3[nH]ccc23)C1 (stereo unspecified)
IC50 [1]: 83.9 µM
IC50 [2]: 54.4 µM

CN(CCCNC(=O)Nc1ccc(C(C)(C)C)cc1)CC1(O)CCN(c2nc(Cl)nc3ccsc23)C1 (stereo unspecified)
IC50 [1]: 50.8 µM
IC50 [2]: 27.7 µM

CC(C)(C)c1ccc(NC(=O)NCCCN(CCCN2CCOCC2)CC2(O)CCN(c3nc(Cl)nc4[nH]ncc34)C2)cc1 (stereo unspecified)
IC50 [1]: 7.15 µM
IC50 [2]: 18.9 µM

CC(C)(C)c1ccc(NC(=O)NCCCN(CCCN2CCOCC2)CC2(O)CCN(c3nc(N)nc4[nH]cnc34)C2)cc1 (stereo unspecified)
IC50 [1]: 29.6 µM
IC50 [2]: > 100 µM

CC(C)N(CCCNC(=O)Nc1ccc(C(C)(C)C)cc1)CC1CCCN(C(=O)c2ccc[nH]c2=O)C1 (stereo unspecified)
IC50 [1]: 81.2 µM
IC50 [2]: 75.7 µM

COC(=O)CCN(CCCNC(=O)Nc1ccc(C(C)(C)C)cc1)CC1(O)CCN(c2ncnc3[nH]cnc23)C1 (stereo unspecified)
IC50 [1]: > 100 µM
IC50 [2]: > 100 µM

CC(C)(C)C(=O)Nc1ccc2[nH]c(CN3CCC(N(CCCN4CCOCC4)CC4CCCN(C(=O)c5cnccn5)C4)CC3)nc2c1 (stereo unspecified)
IC50 [1]: > 100 µM
IC50 [2]: > 100 µM

CC(C)(C)C(=O)Nc1ccc2[nH]c(CN3CCC(N(CCCN4CCOCC4)CC4CCCN(c5ncnc6[nH]cnc56)C4)CC3)nc2c1 (stereo unspecified)
IC50 [1]: 73.8 µM
IC50 [2]: > 100 µM

CC(C)(C)c1ccc(NC(=O)NCCCN(CCC(=O)N2CCSCC2)CC2(O)CCN(c3nc(Cl)nc4[nH]ncc34)C2)cc1 (stereo unspecified)
IC50 [1]: 16.2 µM
IC50 [2]: 44 µM

CC(C)N(CCCNC(=O)Nc1ccc(C(C)(C)C)cc1)CC1(O)CCN(c2nc(Cl)nc3[nH]ccc23)C1 (stereo unspecified)
IC50 [1]: 25.6 µM
IC50 [2]: 17.6 µM

CC(C)N(CCCNC(=O)Nc1ccc(C(C)(C)C)cc1)C[C@H]1O[C@@H](n2cc(Br)c3c(N)ncnc32)[C@H](O)[C@@H]1O
IC50 [1]: 36 µM
IC50 [2]: 8.83 µM

COC(=O)CCN(CCCNC(=O)Nc1ccc(C(C)(C)C)cc1)CC1(O)CCN(c2nc(Cl)nc3[nH]cnc23)C1 (stereo unspecified)
IC50 [1]: 30.9 µM
IC50 [2]: 72.6 µM

CC(C)N(CCCNC(=O)Nc1ccc(C(C)(C)C)cc1)CC1(O)CCN(c2nc(Cl)nc3[nH]ncc23)C1 (stereo unspecified)
IC50 [1]: 14.5 µM
IC50 [2]: 6.47 µM

CN(CCCNC(=O)Nc1ccc(C(C)(C)C)cc1)CC1CCCN(C(=O)c2ccc[nH]c2=O)C1 (stereo unspecified)
IC50 [1]: 83.2 µM
IC50 [2]: 66.3 µM

CC(C)(C)c1ccc(NC(=O)NCCCN(CCC(=O)N2CCSCC2)CC2(O)CCN(c3nc(Cl)nc4[nH]cnc34)C2)cc1 (stereo unspecified)
IC50 [1]: 23.2 µM
IC50 [2]: 64.5 µM

CN(CCCNC(=O)Nc1ccc(C(C)(C)C)cc1)CC1CCCN(c2nc(Cl)nc3[nH]cnc23)C1 (stereo unspecified)
IC50 [1]: 37.7 µM
IC50 [2]: 23.3 µM

CC(C)N(CCCNC(=O)Nc1ccc(C(C)(C)C)cc1)CC1CCCN(c2nc(Cl)nc3[nH]cnc23)C1 (stereo unspecified)
IC50 [1]: 38.7 µM
IC50 [2]: 21.8 µM

CC(C)(C)c1ccc(NC(=O)NCCCN(CCO)CC2(O)CCN(c3ncnc4[nH]cc(Br)c34)C2)cc1 (stereo unspecified)
IC50 [1]: 47.1 µM
IC50 [2]: 41.3 µM

CC(C)(C)C(=O)Nc1ccc2[nH]c(CN3CCC(N(CCCN4CCOCC4)CC4CCCN(c5nc(Cl)nc6[nH]cnc56)C4)CC3)nc2c1 (stereo unspecified)
IC50 [1]: 48.1 µM
IC50 [2]: > 100 µM

CC(C)(C)C(=O)Nc1ccc2[nH]c(CN3CCC(N(CCCN4CCOCC4)CC4CCCN(c5cc(C#N)ccn5)C4)CC3)nc2c1 (stereo unspecified)
IC50 [1]: 85.5 µM
IC50 [2]: > 100 µM

CC(C)(C)c1ccc(NC(=O)NCCCN(CCCN2CCOCC2)CC2(O)CCN(c3nc(Cl)nc4[nH]cnc34)C2)cc1 (stereo unspecified)
IC50 [1]: 9.59 µM
IC50 [2]: 31.4 µM

CN(CCCNC(=O)Nc1ccc(C(C)(C)C)cc1)CC1CCCN(C(=O)c2cnccn2)C1 (stereo unspecified)
IC50 [1]: > 100 µM
IC50 [2]: > 100 µM

CC(C)(C)c1ccc(NC(=O)NCCCN(CCCN2CCOCC2)CC2(O)CCN(c3ncnc4[nH]cc(Br)c34)C2)cc1 (stereo unspecified)
IC50 [1]: 36.5 µM
IC50 [2]: 45.6 µM

CN(CCCNC(=O)Nc1ccc(C(C)(C)C)cc1)CC1(O)CCN(c2nc(Cl)nc3[nH]ncc23)C1 (stereo unspecified)
IC50 [1]: 21.8 µM
IC50 [2]: 8.51 µM

CC(C)(C)c1ccc(NC(=O)NCCCN(CCC(=O)N2CCOCC2)CC2(O)CCN(c3ncnc4[nH]cnc34)C2)cc1 (stereo unspecified)
IC50 [1]: 95.5 µM
IC50 [2]: > 100 µM

COC(=O)CCN(CCCNC(=O)Nc1ccc(C(C)(C)C)cc1)CC1(O)CCN(c2nc(Cl)nc3[nH]ncc23)C1 (stereo unspecified)
IC50 [1]: 28.4 µM
IC50 [2]: 61.7 µM

CC(C)(C)C(=O)Nc1ccc2nc(CN3CCC(N(CCCN4CCOCC4)C[C@H]4O[C@@H](n5cnc6c(N)ncnc65)[C@H](O)[C@@H]4O)CC3)[nH]c2c1
IC50 [3]: 6.18 µM
inhibition in vivo at 20 mg/kg [4]: 54.4%
